Tested on: E2 aptamer (DNA, aptamer) AAGGGATGCCGTTTGGGCCCAAGTTCGGCATAGTG
Experiment: graphene field-effect transistor
Conditions: 0.05 × PBS; pH 7.4, 5% DMSO, no interference; 4.67 nM with pH variation 6.5-8.0

Structure (SMILES): C[C@]12CC[C@@H]3c4ccc(O)cc4CC[C@H]3[C@@H]1CC[C@@H]2O
- KD: 4.21 nM

From article PMC7509988 (2018)
